Reference: US7935672B2, “Derivatives of genkwanin and sakuranetin, cosmetic and therapeutic use thereof and preparation method of same” (priority 2004, dated 2011)

Tests used:
human blood cells = test: human blood cells, proliferation and expression of membrane markers (Tests H); assay type: cell-based; conditions: for proliferation of the blood cells of the immune response: 24 or 48 hours at 37° C.
IL-2 = IL-2 content of cell supernatants after PHA or SEB stimulation (Tests H); conditions: following stimulation with PHA or SEB; FIGS. 2 and 3
lymphoblasts = conditions: serious immune disorders; FR 2 510 580 A, FR 2 597 751 A, Lin et al. 2001; cited from earlier work
[1] = side effects on topical, oral or injected administration (method not described); conditions: administered topically, orally or by injection
leukoblasts = test: antiblastic effect, activity against cancers and leukemias (method not described)

Structure (SMILES)	antibody production for the B lymphocytes (human blood cells)	class II MHCs for dendritic cells (human blood cells)	proliferation of the blood cells of the immune response (human blood cells)	IL-2 production (IL-2)	effect on lymphoblasts formed in hyperplasia (lymphoblasts)	harmful side effects [1]	activity against certain acute cancers and leukemias (antiblastic effect) and chronic myeloid leukemia (leukoblasts)
COc1cc(OC2OC(COC3OCC(O)C(O)C3O)C(O)C(O)C2O)c2c(=O)cc(-c3ccc(O)cc3)oc2c1 [Ex. 2, 5-O-β-D-primeverosyl-genkwanin]	decrease	decrease	do not induce proliferation	inhibition	–	–	–
COc1cc(O[C@@H]2O[C@H](CO[C@@H]3OC[C@@H](O)[C@H](O)[C@H]3O)[C@@H](O)[C@H](O)[C@H]2O)c2c(=O)cc(-c3ccc(O)cc3)oc2c1 [5-O-β-D-primeverosyl-genkwanin]	–	–	–	–	destroys the lymphoblasts formed	–	–
CCOc1ccc(C2CC(=O)c3c(cc(OC)cc3OC3OC(COC4OC(CO)C(O)C(O)C4O)C(O)C(O)C3O)O2)cc1 [Ex. 5, 2,3-dihydro-5-[O-6-(D-gluocpyranosyl)-β-D-glucopyranosyl]oxy-2-(4-ethoxyphenyl)-7-methoxy-4H-1-benzopyran-4-one]	decrease	decrease	do not induce proliferation	inhibition	–	–	–
CCOc1ccc(-c2cc(=O)c3c(OC4OC(COC5OC(CO)C(O)C(O)C5O)C(O)C(O)C4O)cc(OC)cc3o2)cc1 [Ex. 8, 5-[O-6-(D-glucopyranosyl)-β-D-glucopyranosyl]oxy-2-(4-ethoxyphenyl)-7-methoxy-4H-1-benzopyran-4-one]	–	–	–	–	–	virtual absence	particularly active
